Columns and labels:
[1] = molecular target: T1, Serine/threonine-protein kinase haspin (Homo sapiens, UniProt Q8TF76)
T1 sequence (Q8TF76 whole entry): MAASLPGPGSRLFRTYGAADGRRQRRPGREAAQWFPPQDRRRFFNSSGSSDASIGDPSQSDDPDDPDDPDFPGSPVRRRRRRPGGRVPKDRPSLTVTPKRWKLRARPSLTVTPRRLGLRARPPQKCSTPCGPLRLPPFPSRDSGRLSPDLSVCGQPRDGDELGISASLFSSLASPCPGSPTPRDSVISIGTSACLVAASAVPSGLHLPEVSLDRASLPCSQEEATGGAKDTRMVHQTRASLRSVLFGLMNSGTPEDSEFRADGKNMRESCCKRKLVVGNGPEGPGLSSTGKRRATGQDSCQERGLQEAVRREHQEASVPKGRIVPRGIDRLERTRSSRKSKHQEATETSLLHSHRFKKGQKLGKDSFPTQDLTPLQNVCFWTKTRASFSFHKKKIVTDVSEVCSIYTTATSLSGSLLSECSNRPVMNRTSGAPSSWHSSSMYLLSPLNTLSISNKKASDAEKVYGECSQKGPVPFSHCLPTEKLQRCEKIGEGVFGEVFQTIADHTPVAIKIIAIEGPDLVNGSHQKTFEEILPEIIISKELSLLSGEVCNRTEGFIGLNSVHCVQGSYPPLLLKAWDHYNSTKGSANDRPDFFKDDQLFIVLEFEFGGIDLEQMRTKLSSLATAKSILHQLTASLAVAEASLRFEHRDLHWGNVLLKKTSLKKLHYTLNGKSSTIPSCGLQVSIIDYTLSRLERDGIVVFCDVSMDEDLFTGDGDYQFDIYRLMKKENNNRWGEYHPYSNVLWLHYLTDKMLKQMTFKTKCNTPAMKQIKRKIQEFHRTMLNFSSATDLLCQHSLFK

[2] = molecular target: Dual specificity protein kinase CLK1 (Mus musculus, UniProt P22518); assay: Inhibition of recombinant mouse CLK1 expressed in bacteria using GRSRSRSRSRSR as substrate in presence of ATP measured after 30 mins by ADP-Glo assay
[3] = molecular target: Dual specificity tyrosine-phosphorylation-regulated kinase 1A (Rattus norvegicus, UniProt Q63470); assay: Inhibition of recombinant rat DYRK1A (1 to 499 residues ) expressed in bacterial expression system using KKISGRLSPIMTEQ as substrate measured after 30 mins in presence of ATP by ADP-Glo assay
[4] = Inhibition of human recombinant CDK9 expressed in baculovirus insect Sf9 cells using YSPTSPSYSPTSPSYSPTSPSKKKK as substrate measured after 30 mins in presence of ATP by ADP-Glo assay
HCT-116 = assay: Cytotoxicity against human HCT-116 cells assessed as reduction in cell viability measured after 48 hrs by MTS assay; conditions: HCT-116, 48 h
[5] = Cytotoxicity against human TERT-RPE1 cells assessed as reduction in cell viability measured after 48 hrs by MTS assay; format: toxicity, cell-based
[6] = molecular target: Glycogen synthase kinase-3 beta (Homo sapiens, UniProt P49841); assay: Inhibition of human recombinant GSK3beta expressed in baculovirus in Sf9 insect cells using YRRAAVPPSPSLSRHSSPHQSpEDEEE as substrate measured after 30 mins by ADP-Glo kinase assay
SH-SY5Y = assay: Cytotoxicity against human SH-SY5Y cells assessed as reduction in cell viability measured after 48 hrs by MTS assay
HBL-100 = assay: Cytotoxicity against human HBL-100 cells assessed as reduction in cell viability measured after 48 hrs by MTS assay; conditions: HBL-100, 48 h
U2OS = assay: Cytotoxicity against human U2OS cells assessed as reduction in cell viability measured after 48 hrs by MTS assay
[7] = molecular target: Tyrosine-protein kinase ABL1 (Homo sapiens, UniProt P00519); assay: Inhibition of human recombinant ABL1 expressed in baculovirus sf9 insect cells using EAIYAAPFAKKK as substrate measured after 30 mins in presence of ATP by ADP-Glo assay
[8] = molecular target: Serine/threonine-protein kinase pim-1 (Homo sapiens, UniProt P11309); assay: Inhibition of recombinant human PIM1 expressed in bacterial expression system using histone H1 as substrate measured after 30 mins in presence of ATP by ADP-Glo assay
[9] = molecular target: Casein kinase I isoform epsilon (Homo sapiens, UniProt P49674); assay: Inhibition of human recombinant CK1 epsilon expressed in baculovirus in sf9 insect cells using RRKHAAIGSpAYSITA as substrate in presence of ATP measured after 30 mins by ADP-Glo assay
[10] = molecular target: T2, Tyrosine-protein kinase JAK3 (Homo sapiens, UniProt P52333); assay: Inhibition of human recombinant JAK3 expressed in baculovirus sf9 insect cells using GGEEEEYFELVKKKK as substrate measured after 30 mins in presence of ATP by ADP-Glo assay
T2 sequence (P52333 whole entry): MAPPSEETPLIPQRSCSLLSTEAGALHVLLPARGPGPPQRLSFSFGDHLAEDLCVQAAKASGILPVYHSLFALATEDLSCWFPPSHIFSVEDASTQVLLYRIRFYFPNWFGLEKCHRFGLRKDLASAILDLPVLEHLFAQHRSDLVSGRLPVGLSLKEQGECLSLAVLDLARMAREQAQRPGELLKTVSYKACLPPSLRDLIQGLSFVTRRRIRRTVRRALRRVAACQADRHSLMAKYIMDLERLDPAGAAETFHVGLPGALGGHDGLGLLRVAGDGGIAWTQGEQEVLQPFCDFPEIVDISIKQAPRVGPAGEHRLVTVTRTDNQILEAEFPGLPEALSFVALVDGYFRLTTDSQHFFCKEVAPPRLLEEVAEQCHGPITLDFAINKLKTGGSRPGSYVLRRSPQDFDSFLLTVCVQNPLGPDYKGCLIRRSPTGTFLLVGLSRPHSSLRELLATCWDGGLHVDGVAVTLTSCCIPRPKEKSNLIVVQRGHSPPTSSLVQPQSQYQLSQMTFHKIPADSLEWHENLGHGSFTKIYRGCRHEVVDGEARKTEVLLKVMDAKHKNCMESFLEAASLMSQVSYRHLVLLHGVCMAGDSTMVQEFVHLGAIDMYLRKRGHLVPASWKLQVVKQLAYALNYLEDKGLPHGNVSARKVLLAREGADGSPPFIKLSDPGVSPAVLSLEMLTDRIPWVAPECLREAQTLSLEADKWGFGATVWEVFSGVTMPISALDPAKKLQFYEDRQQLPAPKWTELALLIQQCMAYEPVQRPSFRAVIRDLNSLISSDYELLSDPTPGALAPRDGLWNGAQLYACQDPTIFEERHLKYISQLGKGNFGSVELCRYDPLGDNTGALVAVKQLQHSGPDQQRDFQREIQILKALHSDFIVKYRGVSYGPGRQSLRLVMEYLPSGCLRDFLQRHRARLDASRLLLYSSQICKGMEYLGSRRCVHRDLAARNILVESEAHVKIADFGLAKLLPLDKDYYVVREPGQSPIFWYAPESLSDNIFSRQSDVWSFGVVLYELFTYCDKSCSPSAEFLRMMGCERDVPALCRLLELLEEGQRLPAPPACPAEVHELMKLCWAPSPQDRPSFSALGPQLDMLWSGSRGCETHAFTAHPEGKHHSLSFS

[11] = molecular target: Cyclin-dependent kinase 5/CDK5 activator 1 (Homo sapiens, UniProt Q00535); assay: Inhibition of human recombinant CDK5/p25 expressed in bacterial expression system using histone H1 as substrate in presence of ATP at measured after 30 mins by ADP-Glo assay
[12] = molecular target: Serine/threonine-protein kinase PLK3 (Homo sapiens, UniProt Q9H4B4); assay: Inhibition of human recombinant PLK3 in presence of ATP by kinomescan assay
[13] = molecular target: Death-associated protein kinase 3 (Homo sapiens, UniProt O43293); assay: Inhibition of human DAPK3 in presence of ATP by kinomescan assay
[14] = molecular target: Serine/threonine-protein kinase PLK2 (Homo sapiens, UniProt Q9NYY3); assay: Inhibition of human PLK2 in presence of ATP by kinomescan assay
[15] = molecular target: Serine/threonine-protein kinase PLK1 (Homo sapiens, UniProt P53350); assay: Inhibition of human PLK1 in presence of ATP by kinomescan assay
Sequence of Serine/threonine-protein kinase PLK1 (P53350 whole entry): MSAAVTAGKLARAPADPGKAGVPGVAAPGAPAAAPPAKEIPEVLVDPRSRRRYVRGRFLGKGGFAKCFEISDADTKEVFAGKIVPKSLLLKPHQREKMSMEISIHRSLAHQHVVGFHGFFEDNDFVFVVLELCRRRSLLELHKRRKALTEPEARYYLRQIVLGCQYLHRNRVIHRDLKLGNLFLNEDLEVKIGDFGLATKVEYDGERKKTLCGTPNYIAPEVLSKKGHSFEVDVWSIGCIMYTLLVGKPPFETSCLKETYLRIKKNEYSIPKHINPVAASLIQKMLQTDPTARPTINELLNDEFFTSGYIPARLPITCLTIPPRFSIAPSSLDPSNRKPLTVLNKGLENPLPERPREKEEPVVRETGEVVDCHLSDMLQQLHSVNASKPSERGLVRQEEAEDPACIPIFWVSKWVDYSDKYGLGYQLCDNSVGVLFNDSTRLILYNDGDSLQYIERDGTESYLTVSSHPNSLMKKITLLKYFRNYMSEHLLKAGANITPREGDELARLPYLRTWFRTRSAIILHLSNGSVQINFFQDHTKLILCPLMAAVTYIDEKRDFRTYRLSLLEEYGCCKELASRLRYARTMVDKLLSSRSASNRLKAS

Sequence of Dual specificity protein kinase CLK1 (P22518 whole entry, the tested form may be a part): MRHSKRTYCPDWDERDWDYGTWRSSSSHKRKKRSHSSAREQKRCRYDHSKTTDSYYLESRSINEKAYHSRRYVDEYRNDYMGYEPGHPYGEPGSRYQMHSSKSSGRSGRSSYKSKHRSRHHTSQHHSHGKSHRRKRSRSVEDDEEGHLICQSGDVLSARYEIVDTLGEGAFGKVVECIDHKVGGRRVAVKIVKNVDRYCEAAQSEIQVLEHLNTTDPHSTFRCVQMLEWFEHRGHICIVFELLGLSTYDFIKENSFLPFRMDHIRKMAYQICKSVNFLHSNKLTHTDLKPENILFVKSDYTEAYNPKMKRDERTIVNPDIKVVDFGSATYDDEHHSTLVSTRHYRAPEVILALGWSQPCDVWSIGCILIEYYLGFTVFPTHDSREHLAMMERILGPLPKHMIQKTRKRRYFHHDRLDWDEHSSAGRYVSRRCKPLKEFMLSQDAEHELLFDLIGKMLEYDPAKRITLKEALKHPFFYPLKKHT
Sequence of Glycogen synthase kinase-3 beta (P49841 whole entry): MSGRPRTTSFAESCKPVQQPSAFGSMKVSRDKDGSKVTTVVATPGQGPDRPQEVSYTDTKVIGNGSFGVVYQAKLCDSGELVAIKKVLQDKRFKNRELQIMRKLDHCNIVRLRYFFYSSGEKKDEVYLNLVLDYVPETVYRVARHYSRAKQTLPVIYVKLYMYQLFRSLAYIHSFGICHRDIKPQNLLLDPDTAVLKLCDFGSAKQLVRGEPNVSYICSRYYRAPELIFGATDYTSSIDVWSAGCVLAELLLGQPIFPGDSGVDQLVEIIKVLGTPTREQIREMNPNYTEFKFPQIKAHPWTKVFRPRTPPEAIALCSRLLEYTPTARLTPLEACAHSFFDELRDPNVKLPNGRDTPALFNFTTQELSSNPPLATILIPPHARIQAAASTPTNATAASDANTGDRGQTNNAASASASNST
Sequence of Serine/threonine-protein kinase PLK3 (Q9H4B4 whole entry): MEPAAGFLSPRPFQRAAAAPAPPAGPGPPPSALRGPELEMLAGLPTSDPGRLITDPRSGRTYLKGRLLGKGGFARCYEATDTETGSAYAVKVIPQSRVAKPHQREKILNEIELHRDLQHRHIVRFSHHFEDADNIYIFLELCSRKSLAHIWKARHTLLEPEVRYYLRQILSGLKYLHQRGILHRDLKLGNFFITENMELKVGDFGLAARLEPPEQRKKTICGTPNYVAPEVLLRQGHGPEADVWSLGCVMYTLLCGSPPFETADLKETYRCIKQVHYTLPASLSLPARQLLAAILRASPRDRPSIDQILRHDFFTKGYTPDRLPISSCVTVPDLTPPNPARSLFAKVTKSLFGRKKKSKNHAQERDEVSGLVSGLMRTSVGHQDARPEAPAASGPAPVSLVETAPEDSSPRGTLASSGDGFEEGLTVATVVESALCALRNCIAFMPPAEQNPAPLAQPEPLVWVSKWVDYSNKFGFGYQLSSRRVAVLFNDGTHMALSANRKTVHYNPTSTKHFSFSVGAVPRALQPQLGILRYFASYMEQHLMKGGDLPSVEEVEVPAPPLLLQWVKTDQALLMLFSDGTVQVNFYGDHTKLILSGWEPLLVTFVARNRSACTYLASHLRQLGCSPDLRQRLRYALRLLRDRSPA
Sequence of Casein kinase I isoform epsilon (P49674 whole entry, canonical isoform): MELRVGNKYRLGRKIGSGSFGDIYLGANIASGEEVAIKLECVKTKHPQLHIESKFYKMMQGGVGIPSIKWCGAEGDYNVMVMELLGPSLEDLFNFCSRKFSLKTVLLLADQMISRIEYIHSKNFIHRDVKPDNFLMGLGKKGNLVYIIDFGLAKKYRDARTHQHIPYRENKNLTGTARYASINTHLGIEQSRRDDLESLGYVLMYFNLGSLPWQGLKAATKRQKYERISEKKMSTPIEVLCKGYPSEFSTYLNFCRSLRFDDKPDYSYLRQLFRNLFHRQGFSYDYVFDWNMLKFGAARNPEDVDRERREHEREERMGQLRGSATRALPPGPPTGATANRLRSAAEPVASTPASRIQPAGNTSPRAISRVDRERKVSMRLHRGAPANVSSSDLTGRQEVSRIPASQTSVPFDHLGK
Sequence of Serine/threonine-protein kinase pim-1 (P11309 whole entry, canonical isoform): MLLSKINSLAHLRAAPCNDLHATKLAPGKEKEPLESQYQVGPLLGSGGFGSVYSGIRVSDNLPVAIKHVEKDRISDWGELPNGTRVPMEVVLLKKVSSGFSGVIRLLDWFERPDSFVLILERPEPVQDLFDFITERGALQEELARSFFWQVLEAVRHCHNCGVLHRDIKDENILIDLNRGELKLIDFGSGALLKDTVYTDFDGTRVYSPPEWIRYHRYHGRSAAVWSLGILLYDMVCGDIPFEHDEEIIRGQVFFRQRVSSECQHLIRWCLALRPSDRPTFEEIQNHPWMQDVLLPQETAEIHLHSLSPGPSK
Sequence of Death-associated protein kinase 3 (O43293 whole entry): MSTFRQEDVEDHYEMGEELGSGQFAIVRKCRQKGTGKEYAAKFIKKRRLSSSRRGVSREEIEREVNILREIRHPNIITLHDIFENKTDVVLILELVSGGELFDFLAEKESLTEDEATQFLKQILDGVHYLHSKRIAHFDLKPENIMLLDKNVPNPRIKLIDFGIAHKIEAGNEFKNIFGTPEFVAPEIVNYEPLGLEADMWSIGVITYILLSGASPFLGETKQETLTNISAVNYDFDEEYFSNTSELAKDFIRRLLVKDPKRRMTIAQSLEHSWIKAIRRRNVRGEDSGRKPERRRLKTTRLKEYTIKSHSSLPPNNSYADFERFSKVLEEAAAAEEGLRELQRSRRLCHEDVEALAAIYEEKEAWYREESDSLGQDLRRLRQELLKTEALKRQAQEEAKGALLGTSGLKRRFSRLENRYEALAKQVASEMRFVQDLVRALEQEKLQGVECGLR
Sequence of Cyclin-dependent kinase 5/CDK5 activator 1 (Q00535 whole entry): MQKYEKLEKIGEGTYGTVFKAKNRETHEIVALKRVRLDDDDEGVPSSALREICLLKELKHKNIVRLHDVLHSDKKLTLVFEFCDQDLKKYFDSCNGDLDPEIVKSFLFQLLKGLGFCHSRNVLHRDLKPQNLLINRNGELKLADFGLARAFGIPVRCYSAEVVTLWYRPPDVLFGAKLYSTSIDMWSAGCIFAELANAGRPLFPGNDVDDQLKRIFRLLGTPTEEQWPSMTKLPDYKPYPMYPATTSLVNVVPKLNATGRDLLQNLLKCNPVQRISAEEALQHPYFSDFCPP
Sequence of Cyclin-dependent kinase 5/CDK5 activator 1 (Q15078 whole entry, further chain): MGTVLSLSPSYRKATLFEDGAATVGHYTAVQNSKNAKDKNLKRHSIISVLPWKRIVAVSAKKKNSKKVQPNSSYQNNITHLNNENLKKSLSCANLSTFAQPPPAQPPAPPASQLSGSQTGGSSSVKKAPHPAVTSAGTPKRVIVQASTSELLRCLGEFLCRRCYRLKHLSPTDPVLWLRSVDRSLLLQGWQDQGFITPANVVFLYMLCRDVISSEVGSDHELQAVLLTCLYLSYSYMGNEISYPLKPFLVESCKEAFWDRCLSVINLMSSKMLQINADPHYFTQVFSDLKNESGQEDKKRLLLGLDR
Sequence of Serine/threonine-protein kinase PLK2 (Q9NYY3 whole entry): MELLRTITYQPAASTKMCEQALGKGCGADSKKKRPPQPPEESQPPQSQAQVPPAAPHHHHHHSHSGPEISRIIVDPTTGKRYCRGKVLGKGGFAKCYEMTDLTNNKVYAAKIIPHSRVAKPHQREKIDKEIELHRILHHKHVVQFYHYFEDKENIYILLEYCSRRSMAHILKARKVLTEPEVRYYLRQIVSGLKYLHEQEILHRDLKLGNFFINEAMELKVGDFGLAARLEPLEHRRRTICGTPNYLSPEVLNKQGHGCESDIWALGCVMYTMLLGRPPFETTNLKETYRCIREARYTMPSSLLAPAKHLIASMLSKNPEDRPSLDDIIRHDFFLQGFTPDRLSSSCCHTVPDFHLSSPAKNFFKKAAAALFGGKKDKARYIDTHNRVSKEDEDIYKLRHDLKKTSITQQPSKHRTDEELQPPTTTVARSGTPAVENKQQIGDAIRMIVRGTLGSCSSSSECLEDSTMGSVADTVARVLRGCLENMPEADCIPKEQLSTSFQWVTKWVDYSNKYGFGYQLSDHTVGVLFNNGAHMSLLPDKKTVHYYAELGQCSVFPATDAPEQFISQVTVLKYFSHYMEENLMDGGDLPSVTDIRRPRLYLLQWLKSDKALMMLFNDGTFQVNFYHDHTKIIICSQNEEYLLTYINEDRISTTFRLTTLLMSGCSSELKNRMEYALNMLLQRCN

**Q.** With COc1ncc2cc3cnccc3c(N)c2n1 as the molecule, how does the IC50 [1] read?
**A.** 159 nM

**Q.** For CCC(C)Sc1ncc2cc3cnccc3c(N)c2n1 (centres undefined), which IC50 [1] is on record?
**A.** 202 nM

**Q.** With CSc1ncc2cc3cnccc3c(N)c2n1 as the molecule, how does the IC50 [2] read?
**A.** 37 nM

**Q.** And the IC50 [1]?
**A.** 12 nM

**Q.** And the IC50 [3]?
**A.** 47 nM

**Q.** And the IC50 [4]?
**A.** 189 nM

**Q.** For Nc1ccc2cc3cnccc3c([N+](=O)[O-])c2n1, which EC50 (HCT-116) is on record?
**A.** 200 nM

**Q.** And the IC50 [2]?
**A.** 20 nM

**Q.** And the EC50 at 48 h [5]?
**A.** 400 nM

**Q.** What about the IC50 [6] of the same molecule?
**A.** 418 nM

**Q.** What about the IC50 [1] of the same molecule?
**A.** 3 nM

**Q.** And the EC50 (SH-SY5Y)?
**A.** 200 nM

**Q.** What about the EC50 (HBL-100) of the same molecule?
**A.** 800 nM

**Q.** And the IC50 [3]?
**A.** 87 nM

**Q.** And the IC50 [4]?
**A.** 24 nM

**Q.** What about the EC50 (U2OS) of the same molecule?
**A.** 300 nM

**Q.** For CCCCSc1ncc2cc3cnccc3c([N+](=O)[O-])c2n1, which IC50 [1] is on record?
**A.** 1040 nM

**Q.** With CCSc1ncc2cc3cnccc3c(N)c2n1 as the molecule, how does the IC50 [1] read?
**A.** 124 nM

**Q.** For CCSc1ncc2cc3cnccc3c([N+](=O)[O-])c2n1, which IC50 [2] is on record?
**A.** 148 nM

**Q.** And the IC50 [1]?
**A.** 91 nM

**Q.** What about the IC50 [3] of the same molecule?
**A.** 515 nM

**Q.** For CCCSc1ncc2cc3cnccc3c(N)c2n1, which IC50 [2] is on record?
**A.** 90 nM

**Q.** What about the IC50 [1] of the same molecule?
**A.** 65 nM

**Q.** What about the IC50 [3] of the same molecule?
**A.** 148 nM

**Q.** With CCCNc1ccc2ncc(-c3ccc4[nH]ncc4c3)n2n1 as the molecule, how does the IC50 [2] read?
**A.** 8 nM

**Q.** And the IC50 [7]?
**A.** 162 nM

**Q.** And the IC50 [8]?
**A.** 29 nM

**Q.** What about the IC50 [6] of the same molecule?
**A.** 53 nM

**Q.** What about the IC50 [9] of the same molecule?
**A.** 99 nM

**Q.** What about the IC50 [10] of the same molecule?
**A.** 119 nM

**Q.** What about the IC50 [11] of the same molecule?
**A.** 41 nM

**Q.** What about the IC50 [3] of the same molecule?
**A.** 13 nM

**Q.** Which results are given for CC(C)Sc1ncc2cc3cnccc3c(N)c2n1?
**A.** IC50 [2]: 72 nM; IC50 [1]: 56 nM; IC50 [3]: 594 nM

**Q.** With CCOC(=O)CCSc1ncc2cc3cnccc3c([N+](=O)[O-])c2n1 as the molecule, how does the IC50 [1] read?
**A.** 897 nM

**Q.** For CC(C)Sc1ncc2cc3cnccc3c([N+](=O)[O-])c2n1, which IC50 [1] is on record?
**A.** 114 nM

**Q.** For CCCSc1ncc2cc3cnccc3c([N+](=O)[O-])c2n1, which IC50 [1] is on record?
**A.** 169 nM

**Q.** For CCC(C)Sc1ncc2cc3cnccc3c([N+](=O)[O-])c2n1 (centres undefined), which IC50 [1] is on record?
**A.** 484 nM

**Q.** What does the source list for CSc1ncc2cc3cnccc3c([N+](=O)[O-])c2n1?
**A.** EC50 (HCT-116): 1100 nM; EC50 at 48 h [5]: 800 nM; IC50 [1]: 119 nM; EC50 (SH-SY5Y): 1200 nM; EC50 (HBL-100): 1300 nM; IC50 [4]: 407 nM

**Q.** With COc1ncc2cc3cnccc3c([N+](=O)[O-])c2n1 as the molecule, how does the IC50 [12] read?
**A.** 117 nM

**Q.** And the EC50 at 48 h [5]?
**A.** 3200 nM

**Q.** What about the IC50 [13] of the same molecule?
**A.** 578 nM

**Q.** And the IC50 [14]?
**A.** 125 nM

**Q.** And the IC50 [15]?
**A.** 294 nM

**Q.** For CCCCCSc1ncc2cc3cnccc3c(N)c2n1, which IC50 [1] is on record?
**A.** 432 nM

**Q.** Which IC50 [2] does the source give for CCCCSc1ncc2cc3cnccc3c(N)c2n1 here?
**A.** 92 nM

**Q.** And the IC50 [1]?
**A.** 69 nM

**Q.** What about the IC50 [3] of the same molecule?
**A.** 132 nM

Source: ChEMBL document CHEMBL5154885, “Synthesis and biological evaluation of Haspin inhibitors: Kinase inhibitory potency and cellular activity” (Eur J Med Chem, 2022)
